Here are results for 17 compounds from US10947252B2, “Inhibitors of KEAP1-Nrf2 protein-protein interaction” (Janssen Pharmaceutica NV, priority 2018, dated 2021).

Assay [1] concerns the target Kelch domain of human KEAP1 (321-624 aa) (Homo sapiens (Human), UniProt Q14145). Kind of assay: KEAP1 KELCH ThermoFluor binding assay.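 Note: Ligand-induced melting temperature shift of E. coli-expressed KEAP1 Kelch protein, Kd estimated from concentration-response curves of ΔTm.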 The settings on record: KEAP Kelch […], 1,8-ANS, pH 7.0, average of results obtained, read-out: Tf Kd.
Source text: The shift in the melting point described as a ΔTm is proportional to the concentration and affinity of the ligand. The compound potency may be compared as a rank order of either ΔTm values at a single compound concentration or in terms of KD values, estimated from concentration response curves.
The protein was expressed in E. coli with 6His tag that was cleaved prior to receipt for use.
Protein (KEAP Kelch) and compound solutions were dispensed into black 384-well polypropylene PCR microplates (Abgene) and overlayed with silicone oil (1 μL, Fluka, type DC 200) to prevent evaporation.
Assay [2] relates to Glo-Response ARE-luc2P HEK293 cell line. Kind of assay: ARE luciferase reporter cell-based assay.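 Note: luciferase signal tracks Nrf2 activation of the ARE once compounds disrupt KEAP1-Nrf2 binding, read with One-Glo reagent, DMSO serving as low control.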 The settings on record: Homo sapiens, HEK293, 24 h, average of results obtained. Background: A reporter such as luciferase makes a cellular process visible.

The structures appear in SMILES notation.

Usually Kd stands for the constant that tells how readily two partners part at equilibrium. As a reminder, the EC50 is the concentration that produces a half-maximal response. Low values mean greater potency, high ones weaker potency.

Kelch domain of human KEAP1 (321-624 aa), sequence (Q14145 321-624): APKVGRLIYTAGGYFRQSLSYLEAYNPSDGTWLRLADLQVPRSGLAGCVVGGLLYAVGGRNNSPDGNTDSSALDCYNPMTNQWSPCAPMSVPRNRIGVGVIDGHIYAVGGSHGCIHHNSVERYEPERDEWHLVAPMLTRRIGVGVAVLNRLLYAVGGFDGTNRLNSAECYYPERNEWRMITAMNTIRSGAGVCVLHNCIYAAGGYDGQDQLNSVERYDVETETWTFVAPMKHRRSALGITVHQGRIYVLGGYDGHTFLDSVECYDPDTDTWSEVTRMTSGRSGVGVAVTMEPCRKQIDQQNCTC

On to `Cc1ccc([C@H](CC(=O)O)c2ccn3c(C4CC4)nnc3c2C)cc1CN1CC2(CC2)Oc2ncc(F)cc2S1(=O)=O` (single isomer, unassigned) [Example 230, (*S)-3-(3-Cyclopropyl-8-methyl-[1,2,4]triazolo[4,3-a]pyridin-7-yl)-3-(3-((8′-fluoro-1′,1′-dioxidospiro[cyclopropane-1,4′-pyrido[2,3-b][1,4,5]oxathiazepin]-2′(3′H)-yl)methyl)-4-methylphenyl)propanoic Acid], for which the Kd in assay [1] is less than 1 nM. This compound also yielded an EC50 in assay [2] of 480 nM.

Regarding `CCc1nnc2c(C)c([C@@H](CC(=O)O)c3ccc(C)c(CN4C[C@H]5CCCN5c5ncccc5S4(=O)=O)c3)ccn12` (single isomer, unassigned) [Example 282, (*S)-3-(3-(((R)-5,5-dioxido-7a,8,9,10-tetrahydropyrido[2,3-f]pyrrolo[2,1-d][1,2,5]thiadiazepin-6(7H)-yl)methyl)-4-methylphenyl)-3-(3-ethyl-8-methyl-[1,2,4]triazolo[4,3-a]pyridin-7-yl)propanoic Acid], the Kd in assay [1] was less than 1 nM. In assay [2], this compound returned an EC50 of 293 nM.

For the compound `Cc1ccc(C(CC(=O)O)c2ccc3c(nnn3CC3CC3)c2C)cc1CN1C[C@@H]2CCCCN2c2ncccc2S1(=O)=O` (mixture of isomers) [Example 231, (R/S)-3-(1-(Cyclopropylmethyl)-4-methyl-1H-benzo[d][1,2,3]triazol-5-yl)-3-(3-(((*S)-5,5-dioxido-7,7a,8,9,10,11-hexahydro-6H-dipyrido[2,1-d:2′,3′-f][1,2,5]thiadiazepin-6-yl)methyl)-4-methylphenyl)propanoic Acid], the Kd in assay [1] was less than 1 nM. Besides, in assay [2], the EC50 is 7 nM.

`Cc1ncc([C@@H](c2ccc3c(nnn3C3CC3)c2C)C(C)(C)C(=O)O)cc1CN1CC2(CCOCC2)Oc2ncccc2S1(=O)=O` (single isomer, unassigned) [Example 45, (*R)-3-(1-Cyclopropyl-4-methyl-1H-benzo[d][1,2,3]triazol-5-yl)-3-(5-((1′,1′-dioxido-2,3,5,6-tetrahydrospiro[pyran-4,4′-pyrido[2,3-b][1,4,5]oxathiazepin]-2′(3′H)-yl)methyl)-6-methylpyridin-3-yl)-2,2-dimethylpropanoic Acid]: the equilibrium dissociation constant (Kd) in assay [1] was found to be 42600 nM. This compound registered an EC50 in assay [2] of 6560 nM.

In the case of `Cc1ncc([C@H](c2ccn3c(C(F)(F)F)nnc3c2C)C(C)(C)C(=O)O)cc1CN1CC2(CCOCC2)Oc2ncccc2S1(=O)=O` (single isomer, unassigned) [Example 570, (*S)-3-(5-((1′,1′-Dioxido-2,3,5,6-tetrahydrospiro[pyran-4,4′-pyrido[2,3-b][1,4,5]oxathiazepin]-2′(3′H)-yl)methyl)-6-methylpyridin-3-yl)-2,2-dimethyl-3-(8-methyl-3-(trifluoromethyl)-[1,2,4]triazolo[4,3-a]pyridin-7-yl)propanoic Acid], in assay [1], the Kd was less than 1 nM. The same compound came in with an EC50 in assay [2] of 1120 nM.

In the case of `CCn1nnc2c(C)c(C(CC(=O)O)c3ccc(C)c(CN4CC5(COC5)Oc5ncccc5S4(=O)=O)c3)ccc21` (stereo not shown) [Example 252, 3-(3-((1′,1′-Dioxidospiro[oxetane-3,4′-pyrido[2,3-b][1,4,5]oxathiazepin]-2′(3′H)-yl)methyl)-4-methylphenyl)-3-(1-ethyl-4-methyl-1H-benzo[d][1,2,3]triazol-5-yl)propanoic Acid], the Kd in assay [1] is less than 1 nM. This compound had an EC50 in assay [2] of 21 nM.

Turning to `Cc1ccc([C@@H](CC(=O)O)c2ccn3c(C(F)F)nnc3c2C)cc1CN1C[C@@H]2COCCN2c2ncccc2S1(=O)=O` (single isomer, unassigned) [Example 459, (*R)-3-(3-(Difluoromethyl)-8-methyl-[1,2,4]triazolo[4,3-a]pyridin-7-yl)-3-(3-(((*R)-5,5-dioxido-7a,8,10,11-tetrahydro-[1,4]oxazino[3,4-d]pyrido[2,3-f][1,2,5]thiadiazepin-6(7H)-yl)methyl)-4-methylphenyl)propanoic Acid], the Kd in assay [1] was 1.19 nM. In assay [2], this compound came in with a concentration giving a half-maximal response (EC50) of 203 nM.

In the case of `Cc1ccc(C(CC(=O)O)c2ccn3c(C(F)F)nnc3c2C)cc1CN1C[C@]2(C)CCCN2c2ncccc2S1(=O)=O` (stereo in doubt) [Example 475, 3-(3-(Difluoromethyl)-8-methyl-[1,2,4]triazolo[4,3-a]pyridin-7-yl)-3-(4-methyl-3-(((*S)-7a-methyl-5,5-dioxido-7a,8,9,10-tetrahydropyrido[2,3-f]pyrrolo[2,1-d][1,2,5]thiadiazepin-6(7H)-yl)methyl)phenyl)propanoic Acid], the Kd in assay [1] was less than 1 nM. The same compound displayed an EC50 in assay [2] of 406 nM.

Turning to `Cc1ccc([C@H](CC(=O)O)c2ccn3c(C(F)(F)F)nnc3c2C)nc1CN1C[C@@H]2CCCCN2c2ncccc2S1(=O)=O` (single isomer, unassigned) [Example 480, (*R)-3-(6-(((*S)-5,5-Dioxido-7,7a,8,9,10,11-hexahydro-6H-dipyrido[2,1-d:2′,3′-f][1,2,5]thiadiazepin-6-yl)methyl)-5-methylpyridin-2-yl)-3-(8-methyl-3-(trifluoromethyl)-[1,2,4]triazolo[4,3-a]pyridin-7-yl)propanoic Acid], in assay [1], the Kd is less than 1 nM. In addition, in assay [2], the EC50 worked out at 252 nM.

Turning to `Cc1ccc(C(CC(=O)O)c2ccc3c(nnn3C3CC3)c2C)cc1CN1C[C@@H]2COCCN2c2ncccc2S1(=O)=O` (stereo in doubt) [Example 23, 3-(1-Cyclopropyl-4-methyl-1H-benzo[d][1,2,3]triazol-5-yl)-3-(3-(((*R)-5,5-dioxido-7a,8,10,11-tetrahydro-[1,4]oxazino[3,4-d]pyrido[2,3-f][1,2,5]thiadiazepin-6(7H)-yl)methyl)-4-methylphenyl)propanoic Acid], the Kd in assay [1] stood at 0.278 nM. A half-maximal response in assay [2] (EC50) required 8.3 nM.

Take `Cc1ccc(C(CC(=O)O)c2ccn3c(C(F)(F)F)nnc3c2C)cc1CN1C[C@H]2CCCN2c2ccccc2S1(=O)=O` (stereo partly drawn) [Example 265, 3-(3-(((R)-5,5-Dioxido-7a,8,9,10-tetrahydrobenzo[f]pyrrolo[2,1-d][1,2,5]thiadiazepin-6(7H)-yl)methyl)-4-methylphenyl)-3-(8-methyl-3-(trifluoromethyl)-[1,2,4]triazolo[4,3-a]pyridin-7-yl)propanoic Acid]: the Kd in assay [1] is less than 1 nM. Further, the EC50 in assay [2] turned out to be 31.2 nM.

As for `Cc1cc2cc([C@H](CC(=O)O)c3ccc(C)c(CN4C[C@H]5CCCN5c5ncccc5S4(=O)=O)c3)n(C)c2nn1` (single isomer, unassigned) [Example 436, (*R)-3-(3,7-Dimethyl-7H-pyrrolo[2,3-c]pyridazin-6-yl)-3-(3-(((R)-5,5-dioxido-7a,8,9,10-tetrahydropyrido[2,3-f]pyrrolo[2,1-d][1,2,5]thiadiazepin-6(7H)-yl)methyl)-4-methylphenyl)propanoic Acid], the Kd in assay [1] was less than 1 nM. For the same compound, a half-maximal effect in assay [2] (EC50) was put at 2230 nM.

With `Cc1cnc([C@@H](c2ccn3c(C(F)F)nnc3c2C)C(C)(C)C(=O)O)cc1CN1CC2(CC2)Oc2nc(OCCN3CCCC3)c(C)cc2S1(=O)=O` (single isomer, unassigned) [Example 636, (*S)-3-(3-(Difluoromethyl)-8-methyl-[1,2,4]triazolo[4,3-a]pyridin-7-yl)-2,2-dimethyl-3-(5-methyl-4-((8′-methyl-1′,1′-dioxido-7′-(2-(pyrrolidin-1-yl)ethoxy)spiro[cyclopropane-1,4′-pyrido[2,3-b][1,4,5]oxathiazepin]-2′(3′H)-yl)methyl)pyridin-2-yl)propanoic Acid], the Kd in assay [1] was less than 1 nM. The compound further yielded an EC50 in assay [2] of 40.2 nM.

For the compound `Cc1c([C@H](CC(=O)O)c2ccc(Cl)c(CN3CC4CCCCN4c4ncccc4S3(=O)=O)c2)ccn2c(C(F)(F)F)nnc12` (single isomer, unassigned) [Example 85, (*R)-3-(4-Chloro-3-(((*S)-5,5-dioxido-7,7a,8,9,10,11-hexahydro-6H-dipyrido[2,1-d:2′,3′-f][1,2,5]thiadiazepin-6-yl)methyl)phenyl)-3-(8-methyl-3-(trifluoromethyl)-[1,2,4]triazolo[4,3-a]pyridine-7-yl)propanoic Acid], the Kd in assay [1] was found to be 2.2 nM. This compound gave an EC50 in assay [2] of 1510 nM.

With `Cc1cnc2c(c1)S(=O)(=O)N(Cc1cc([C@@H](CC(=O)O)c3ccn4c(C(F)(F)F)nnc4c3C)ccc1C)CC1(CC1)O2` (single isomer, unassigned) [Example 64, (*R)-3-(4-methyl-3-((8′-methyl-1′,1′-dioxidospiro[cyclopropane-1,4′-pyrido[2,3-b][1,4,5]oxathiazepin]-2′(3′H)-yl)methyl)phenyl)-3-(8-methyl-3-(trifluoromethyl)-[1,2,4]triazolo[4,3-a]pyridin-7-yl)propanoic Acid], in assay [1], the Kd is less than 1 nM. For the same compound, a half-maximal effect in assay [2] (EC50) was put at 304 nM.

Turning to `Cc1ccc([C@@H](c2ccn3c(C(F)F)nnc3c2C)C(C)(C)C(=O)O)cc1CN1CC2(CCOCC2)Oc2nc(OCCN3CCOCC3)ccc2S1(=O)=O` (single isomer, unassigned) [Example 579, (*S)-3-(3-(Difluoromethyl)-8-methyl-[1,2,4]triazolo[4,3-a]pyridin-7-yl)-2,2-dimethyl-3-(4-methyl-3-((7′-(2-morpholinoethoxy)-1′,1′-dioxido-2,3,5,6-tetrahydrospiro[pyran-4,4′-pyrido[2,3-b][1,4,5]oxathiazepin]-2′(3′H)-yl)methyl)phenyl)propanoic Acid], the Kd in assay [1] is less than 1 nM. For the same compound, a half-maximal effect in assay [2] (EC50) was put at 27.8 nM.

For `Cc1ccc([C@@H](CC(=O)O)c2ccn3c(C(F)(F)F)nnc3c2C)nc1CN1C[C@@H]2CCCCN2c2ncc(F)cc2S1(=O)=O` (single isomer, unassigned) [Example 497, (*S)-3-(6-(((*S)-3-Fluoro-5,5-dioxido-7,7a,8,9,10,11-hexahydro-6H-dipyrido[2,1-d:2′,3′-f][1,2,5]thiadiazepin-6-yl)methyl)-5-methylpyridin-2-yl)-3-(8-methyl-3-(trifluoromethyl)-[1,2,4]triazolo[4,3-a]pyridin-7-yl)propanoic Acid], the Kd in assay [1] was less than 1 nM. Besides, a half-maximal effect in assay [2] (EC50) was put at 4.47 nM.
